Results reported in PMC9012943, “Oral remdesivir derivative VV116 is a potent inhibitor of respiratory syncytial virus with efficacy in mouse model” (Signal Transduction and Targeted Therapy, 2022).
Several values for one entry are separate records, joined by “and”; a condition that tells them apart may be missing. Identical values can stand only once. Like-named read-outs stand apart in the source and are kept apart here. Each block holds one compound with its values, some of them ahead of it.

Tests used:
[1] = Pharmacokinetic study in SD rats; type: in vivo
Description: SD rats (N = 3 for each group, male) were fasted for 12 h before dosing (only for the oral administration). The test compound (VV116 or VV116-H) was administered intravenously at 5.0 mg/kg dissolved in DMSO-enthanol-PEG300-saline (5/5/40/50, v/v/v/v), and administered orally at 30 mg/kg dissolved in 40%PEG400+10% Kolliphor® HS15+50% ultrapure water. At 5 min, 0.25, 0.5, 1.0, 2.0, 4.0, 6.0, 8.0, and 24 h post-dosing, blood samples were collected from the jugular vein into EDTA-K2 tubes. […] samples were obtained following general procedures and the concentrations of analytes in the supernatant were analyzed by LC-MS/MS.

RSV A2 [2] = assay: Inhibition of RSV A2 replication in A549 cells (qRT-PCR); type: cell-based, respiratory syncytial virus; conditions: for EC50: human respiratory syncytial virus, RSV A2 MOI 2, 48 h
Description: A549, HEp-2 or NHBE cells were plated into 48 well-plate and incubated overnight. Upon reaching 80% cell confluence, cells were infected RSV A2 (at an MOI of 2 in A549, MOI of 0.5 in HEp-2, and MOI of 1 in NHBE cells) for 2 h after cells were incubated for 1 h with varying concentrations of drugs. Then, the virus-drug mixture was removed, and cells were cultured with drug-containing medium. At 48 h post inoculation, total RNAs were extracted from cells and then in reverse transcription using PrimeScript RT reagent Kit with gDNA Eraser (TaKaRa). For determining the viral copies, absolute quantitative RT-PCR was performed with TB Green® Premix Ex Taq^TM II (TaKaRa). RSV A2 F fragment was quantified with primers 5’-[…]-3’; and 5’-[…]-3’

[3] = Cellular toxicity in A549 cells (WST-8 cell viability); type: cell-based; conditions: human
Description: Cell viability was performed in 96-well plate with triplicate for each concentration. All drugs were diluted 2 times with 9 gradients starting at 500 micromores in maintenance medium (DMEM containing 2% FBS). After 48 h incubation, the supernatant was removed, and 10 μL WST-8 (2-(2-methoxy-4-(phenyl)-3-(4-(phenyl) to 5 (2, 4-sulpho benzene) -2 h-tetrazolium monosodium salt) in maintenance medium was added in medium. Plates were measured at 450 nm wavelength using spectrophotometer (BioTek) after 2 h incubation, and cell viability was calculated.

RSV A2 [4] = type: in vivo, Balb/c mice; conditions: ribavirin 100 mg/kg b.i.d., day 4 p.i.
Description: Considering the potent effect of VV116 inhibiting RSV in vitro, we further tested the effect of […] against RSV in a mouse model. Ribavirin, the off-label used drug to treat RSV in the clinic, was employed as a control. To this end, 6–8-week Balb/c mice were intranasally infected with 4 × 10^6 FFU of RSV per mouse (day 0), and were then treated with VV116 (25, 50, and 100 mg/kg) or ribavirin (50 and 100 mg/kg) bis in die (b.i.d.) (supplementary Fig S3). […] Viral RNA level in the lung was measured with quantitative RT-PCR and virion load was measured with immunoplaque assay (Fig. 1e). […] We also evaluated the lung pathology of the challenged mice by histochemical analysis.
Specific pathogen-free (SPF) female Balb/c mice at the age of 6–8 weeks were purchased from Beijing Vital River Laboratory Animal Technology Co., Ltd. The mice were housed in an SPF environment under standard conditions. All mouse experiments were approved by the ethics committee of the Wuhan Institute of Virology, Chinese Academy of Science (permit number WIVA25202113). Thirty mice (5 animals per group, 6 groups) were anaesthetized with isoflurane and challenged with 4×10^6 FFU of RSV A2 intranasally (i.n.). The mice were given drugs by intragastric administration. Treatments were commenced in 1 h post infection and continued for 4 days. […] The weight of the mice was recorded daily. […]

RSV = tested on: RSV; parameters: method as in PMID 8413475; conditions: prophylactic treatment; cited from earlier work
[5] = X1 (VV116) or GS-441524 (VV116-H), i.v. 5.0 mg/kg
[6] = X1 (VV116) or GS-441524 (VV116-H), p.o. 30.0 mg/kg
[7] = A549 cells, 48 h, read-out: CC50

Compound: CCC(CC)COC(=O)[C@H](C)N[P@](=O)(OC[C@H]1O[C@@](C#N)(c2ccc3c(N)ncnn23)[C@H](O)[C@@H]1O)Oc1ccccc1 [RDV, Remdesivir]
SI (RSV A2 [2]): 11300
EC50 (RSV A2 [2]): 0.02 ± 0.003 µM
CC50 at 48 h [3]: 226 ± 11.5 µM

Compound: NC(=O)c1ncn([C@@H]2O[C@H](CO)[C@@H](O)[C@H]2O)n1 [ribavirin, Ribavirin]
Decrease of infectious titers in lung (RSV A2 [4]): ~ 2.0 log10
Decrease of viral RNA copies in lung (RSV A2 [4]): ~ 1.5 log10

Compound: Nc1ccn([C@@H]2O[C@@](CO)(CCl)[C@@H](O)[C@H]2F)c(=O)n1 [ALS-8112]
SI (RSV A2 [2]): > 1785
EC50 (RSV A2 [2]): 0.28 ± 0.07 µM
CC50 at 48 h [3, 7]: > 500 µM

Compound: palivizumab: approved prophylactic treatment for prevention of serious RSV lower respiratory tract disease in high-risk children
Share of individuals in whom effective in preventing hospitalization (RSV): ~ 50%

The next lines start with results.

Concentration of X1 or GS-441524 in plasma, Mean ([1]; IV 5.0 mg/kg, 5 min): 1997 ng/mL
Concentration of X1 or GS-441524 in plasma, individual rats ([1]; IV 5.0 mg/kg, 5 min, 5 mg/kg): 1940 ng/mL and 1960 ng/mL and 2090 ng/mL
Concentration of X1 or GS-441524 in plasma, Mean ([1]; IV 5.0 mg/kg, 0.25 h): 1557 ng/mL
Concentration of X1 or GS-441524 in plasma, individual rats ([1]; IV 5.0 mg/kg, 0.25 h, 5 mg/kg): 1560 ng/mL and 1620 ng/mL and 1490 ng/mL
Concentration of X1 or GS-441524 in plasma, Mean ([1]; IV 5.0 mg/kg, 0.5 h): 983 ng/mL
Concentration of X1 or GS-441524 in plasma, individual rats ([1]; IV 5.0 mg/kg, 0.5 h, 5 mg/kg): 1040 ng/mL and 921 ng/mL and 988 ng/mL
Concentration of X1 or GS-441524 in plasma, Mean ([1]; IV 5.0 mg/kg, 1.0 h): 502 ng/mL
Concentration of X1 or GS-441524 in plasma, individual rats ([1]; IV 5.0 mg/kg, 1.0 h, 5 mg/kg): 425 ng/mL and 522 ng/mL and 558 ng/mL
Concentration of X1 or GS-441524 in plasma, Mean ([1]; IV 5.0 mg/kg, 2.0 h): 158 ng/mL
Concentration of X1 or GS-441524 in plasma, individual rats ([1]; IV 5.0 mg/kg, 2.0 h, 5 mg/kg): 150 ng/mL and 163 ng/mL and 162 ng/mL
Concentration of X1 or GS-441524 in plasma, Mean ([1]; IV 5.0 mg/kg, 4.0 h): 25 ng/mL
Concentration of X1 or GS-441524 in plasma, individual rats ([1]; IV 5.0 mg/kg, 4.0 h, 5 mg/kg): 23.6 ng/mL and 24.3 ng/mL and 27.8 ng/mL
Concentration of X1 or GS-441524 in plasma, Mean ([1]; IV 5.0 mg/kg, 6.0 h): 11 ng/mL
Concentration of X1 or GS-441524 in plasma, individual rats ([1]; IV 5.0 mg/kg, 6.0 h, 5 mg/kg): BQL (2×) and 11.2 ng/ml
Concentration of X1 or GS-441524 in plasma, individual rats ([1]; IV 5.0 mg/kg, 8.0 h): BQL
Concentration of X1 or GS-441524 in plasma, individual rats ([1]; IV 5.0 mg/kg, 24.0 h): BQL
Concentration of X1 or GS-441524 in plasma, Mean ([1]; PO 30.0 mg/kg, 5 min): 251 ng/mL
Concentration of X1 or GS-441524 in plasma, individual rats ([1]; PO 30.0 mg/kg, 5 min, 30 mg/kg): 122 ng/mL and 279 ng/mL and 353 ng/mL
Concentration of X1 or GS-441524 in plasma, Mean ([1]; PO 30.0 mg/kg, 0.25 h): 1480 ng/mL
Concentration of X1 or GS-441524 in plasma, individual rats ([1]; PO 30.0 mg/kg, 0.25 h, 30 mg/kg): 1450 ng/mL and 1180 ng/mL and 1810 ng/mL
Concentration of X1 or GS-441524 in plasma, Mean ([1]; PO 30.0 mg/kg, 0.5 h): 1963 ng/mL
Concentration of X1 or GS-441524 in plasma, individual rats ([1]; PO 30.0 mg/kg, 0.5 h, 30 mg/kg): 1790 ng/mL and 1440 ng/mL and 2660 ng/mL
Concentration of X1 or GS-441524 in plasma, Mean ([1]; PO 30.0 mg/kg, 1.0 h): 1523 ng/mL
Concentration of X1 or GS-441524 in plasma, individual rats ([1]; PO 30.0 mg/kg, 1.0 h, 30 mg/kg): 1570 ng/mL and 1490 ng/mL and 1510 ng/mL
Concentration of X1 or GS-441524 in plasma, Mean ([1]; PO 30.0 mg/kg, 2.0 h): 1717 ng/mL
Concentration of X1 or GS-441524 in plasma, individual rats ([1]; PO 30.0 mg/kg, 2.0 h, 30 mg/kg): 1610 ng/mL and 1730 ng/mL and 1810 ng/mL
Concentration of X1 or GS-441524 in plasma, Mean ([1]; PO 30.0 mg/kg, 4.0 h): 860 ng/mL
Concentration of X1 or GS-441524 in plasma, individual rats ([1]; PO 30.0 mg/kg, 4.0 h, 30 mg/kg): 761 ng/mL and 995 ng/mL and 825 ng/mL
Concentration of X1 or GS-441524 in plasma, Mean ([1]; PO 30.0 mg/kg, 6.0 h): 179 ng/mL
Concentration of X1 or GS-441524 in plasma, individual rats ([1]; PO 30.0 mg/kg, 6.0 h, 30 mg/kg): 154 ng/mL and 165 ng/mL and 218 ng/mL
Concentration of X1 or GS-441524 in plasma, Mean ([1]; PO 30.0 mg/kg, 8.0 h): 76 ng/mL
Concentration of X1 or GS-441524 in plasma, individual rats ([1]; PO 30.0 mg/kg, 8.0 h, 30 mg/kg): 32.8 ng/mL and 90 ng/mL and 106 ng/mL
Concentration of X1 or GS-441524 in plasma, Mean ([1]; PO 30.0 mg/kg, 24.0 h): 13 ng/mL
Concentration of X1 or GS-441524 in plasma, individual rats ([1]; PO 30.0 mg/kg, 24.0 h, 30 mg/kg): 9.79 ng/mL and 23.3 ng/mL and 6.27 ng/mL
AUC0-t [1, 5]: 1689 ± 80 ng·h/mL
AUC0-∞ [1, 5]: 1709 ± 74 ng·h/mL
CL [1, 5]: 48.8 ± 2.1 mL/min/kg
Cmax [1, 5]: 1997 ± 81 ng/mL
MRT0-∞ [1, 5]: 0.82 ± 0.05 h
T1/2 [1, 5]: 0.73 ± 0.07 h
Vss [1, 5]: 2.41 ± 0.05 L/kg
AUC0-t [1, 6]: 7664 ± 802 ng·h/mL
AUC0-∞ [1, 6]: 7768 ± 827 ng·h/mL
Cmax [1, 6]: 2060 ± 520 ng/mL
MRT0-∞ [1, 6]: 3.47 ± 0.80 h
T1/2 [1, 6]: 4.59 ± 2.08 h
Tmax [1, 6]: 1.00 ± 0.87 h
F ([1]; X1 (VV116) or GS-441524 (VV116-H), p.o. 30.0 mg/kg vs i.v. 5.0 mg/kg): 75.6%
Compound: CC(C)C(=O)OC[C@H]1O[C@@](C#N)(c2ccc3c(N)ncnn23)[C@H](OC(=O)C(C)C)[C@@H]1OC(=O)C(C)C [VV116-H]

EC50 (RSV A2 [2]): 1.2 ± 0.32 µM
Compound: [2H]c1cc([C@]2(C#N)O[C@H](COC(=O)C(C)C)[C@@H](OC(=O)C(C)C)[C@H]2OC(=O)C(C)C)n2ncnc(N)c12 [X6]
SI (RSV A2 [2]): 80
CC50 at 48 h [3, 7]: 95.9 ± 9.27 µM

EC50 (RSV A2 [2]): 0.82 ± 0.46 µM
Compound: N#C[C@@]1(c2ccc3c(N)ncnn23)O[C@H](CO)[C@@H](O)[C@H]1O [GS-441524, 1′-CN-4-aza-7,9-dideazaadenosine C-nucleoside]
SI (RSV A2 [2]): > 608
CC50 at 48 h [3, 7]: > 500 µM
